Measurements reported in patent US11059789B2, “Isoquinoline-steroid conjugates and uses thereof” (priority 2018, dated 2021).

How the values were obtained:
[1] = molecular target: ROCK2 (Homo sapiens (Human), UniProt O75116); assay: Kinase assay ROCK2; type: biochemical; details: HCl salt
Procedure: (§1) Inhibition of various kinases was assayed.

[2] = molecular target: ROCK1 (Homo sapiens (Human), UniProt Q13464); assay: Kinase assay ROCK1; type: biochemical; details: HCl salt
Procedure: as §1

[3] = molecular target: PKA (Homo sapiens, UniProt P17612); assay: Kinase assay PKA; type: biochemical; details: HCl salt
Procedure: as §1

[4] = molecular target: JAK1 (Homo sapiens (Human), UniProt P23458); assay: Kinase assay JAK1; type: biochemical; details: HCl salt
Procedure: as §1

[5] = molecular target: JAK2 (Homo sapiens (Human), UniProt O60674); assay: Kinase assay JAK2; type: biochemical; details: HCl salt
Chain of JAK2 (O60674 whole entry, species assumed): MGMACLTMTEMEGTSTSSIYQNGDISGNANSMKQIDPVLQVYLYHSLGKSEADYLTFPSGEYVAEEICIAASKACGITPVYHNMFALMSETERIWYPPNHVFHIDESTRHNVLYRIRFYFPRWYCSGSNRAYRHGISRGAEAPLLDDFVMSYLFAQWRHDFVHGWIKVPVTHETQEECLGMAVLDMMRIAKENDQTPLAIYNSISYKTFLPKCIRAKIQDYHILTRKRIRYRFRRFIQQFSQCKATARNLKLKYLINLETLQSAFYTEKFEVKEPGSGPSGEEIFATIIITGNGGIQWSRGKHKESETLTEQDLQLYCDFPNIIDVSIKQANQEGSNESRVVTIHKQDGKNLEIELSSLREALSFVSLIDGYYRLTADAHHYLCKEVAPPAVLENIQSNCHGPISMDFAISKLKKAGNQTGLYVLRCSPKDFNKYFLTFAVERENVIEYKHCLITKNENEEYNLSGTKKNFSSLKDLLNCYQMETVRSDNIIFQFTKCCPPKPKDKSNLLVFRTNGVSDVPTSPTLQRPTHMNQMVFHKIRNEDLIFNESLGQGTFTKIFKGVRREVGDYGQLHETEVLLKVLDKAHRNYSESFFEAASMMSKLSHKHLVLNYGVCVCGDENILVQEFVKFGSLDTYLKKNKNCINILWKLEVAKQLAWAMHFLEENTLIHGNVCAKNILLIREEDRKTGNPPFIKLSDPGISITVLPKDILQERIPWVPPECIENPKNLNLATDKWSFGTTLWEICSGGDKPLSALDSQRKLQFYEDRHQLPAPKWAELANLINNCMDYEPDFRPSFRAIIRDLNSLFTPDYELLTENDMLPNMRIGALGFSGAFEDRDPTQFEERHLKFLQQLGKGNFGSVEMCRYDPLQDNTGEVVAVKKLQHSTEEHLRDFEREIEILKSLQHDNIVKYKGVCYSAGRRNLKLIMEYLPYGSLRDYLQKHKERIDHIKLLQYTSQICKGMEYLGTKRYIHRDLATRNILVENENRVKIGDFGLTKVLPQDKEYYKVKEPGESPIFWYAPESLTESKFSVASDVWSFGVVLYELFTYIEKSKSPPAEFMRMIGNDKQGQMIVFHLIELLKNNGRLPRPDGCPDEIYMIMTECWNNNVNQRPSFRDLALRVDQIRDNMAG

[6] = molecular target: JAK3 (Homo sapiens (Human), UniProt P52333); assay: Kinase assay JAK3; type: biochemical; details: HCl salt
Procedure: as §1

[7] = molecular target: TYK2 (Homo sapiens (Human), UniProt P29597); assay: Kinase assay TYK2; type: biochemical; details: HCl salt
Chain of TYK2 (P29597 whole entry, species assumed): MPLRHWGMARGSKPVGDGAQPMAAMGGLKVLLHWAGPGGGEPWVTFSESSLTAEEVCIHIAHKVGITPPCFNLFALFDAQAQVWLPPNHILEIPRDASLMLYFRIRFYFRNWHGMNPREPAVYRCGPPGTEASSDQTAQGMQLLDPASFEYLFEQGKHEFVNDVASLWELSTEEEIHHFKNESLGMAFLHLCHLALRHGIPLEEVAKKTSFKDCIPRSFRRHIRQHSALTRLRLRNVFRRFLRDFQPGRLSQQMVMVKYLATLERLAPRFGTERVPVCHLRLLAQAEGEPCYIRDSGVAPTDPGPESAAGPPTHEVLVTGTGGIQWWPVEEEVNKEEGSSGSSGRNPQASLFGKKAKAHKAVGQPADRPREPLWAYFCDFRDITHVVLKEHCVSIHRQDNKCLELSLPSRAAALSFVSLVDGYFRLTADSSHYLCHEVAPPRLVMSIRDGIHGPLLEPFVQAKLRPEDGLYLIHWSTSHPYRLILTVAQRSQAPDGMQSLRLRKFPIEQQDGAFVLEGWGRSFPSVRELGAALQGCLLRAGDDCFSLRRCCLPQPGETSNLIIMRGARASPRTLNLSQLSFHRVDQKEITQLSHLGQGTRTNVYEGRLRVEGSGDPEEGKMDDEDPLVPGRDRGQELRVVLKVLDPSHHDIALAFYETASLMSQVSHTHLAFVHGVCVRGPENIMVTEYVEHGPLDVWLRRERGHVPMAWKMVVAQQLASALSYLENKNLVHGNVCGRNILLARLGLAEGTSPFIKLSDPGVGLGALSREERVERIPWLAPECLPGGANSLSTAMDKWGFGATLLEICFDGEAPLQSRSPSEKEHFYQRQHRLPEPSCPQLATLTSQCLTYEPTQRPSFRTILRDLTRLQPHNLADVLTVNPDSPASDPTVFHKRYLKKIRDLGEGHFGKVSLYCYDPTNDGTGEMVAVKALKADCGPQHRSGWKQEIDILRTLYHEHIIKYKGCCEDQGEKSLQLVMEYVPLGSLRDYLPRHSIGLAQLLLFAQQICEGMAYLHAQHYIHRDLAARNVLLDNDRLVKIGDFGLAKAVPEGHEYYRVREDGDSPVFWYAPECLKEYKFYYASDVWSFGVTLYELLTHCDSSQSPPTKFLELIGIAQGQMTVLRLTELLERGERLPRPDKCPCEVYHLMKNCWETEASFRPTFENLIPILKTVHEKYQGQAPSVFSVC
Procedure: as §1

[8] = molecular target: IKKb (Homo sapiens (Human), UniProt O14920); assay: Kinase assay IKKb; type: biochemical; details: HCl salt
Procedure: as §1

[9] = molecular target: PKCh (Homo sapiens (Human), UniProt P24723); assay: Kinase assay PKCh; type: biochemical; details: HCl salt
Procedure: as §1

[10] = molecular target: PKCd (Homo sapiens (Human), UniProt Q05655); assay: Kinase assay PKCd; type: biochemical; details: HCl salt
Chain of PKCd (Q05655 whole entry, species assumed): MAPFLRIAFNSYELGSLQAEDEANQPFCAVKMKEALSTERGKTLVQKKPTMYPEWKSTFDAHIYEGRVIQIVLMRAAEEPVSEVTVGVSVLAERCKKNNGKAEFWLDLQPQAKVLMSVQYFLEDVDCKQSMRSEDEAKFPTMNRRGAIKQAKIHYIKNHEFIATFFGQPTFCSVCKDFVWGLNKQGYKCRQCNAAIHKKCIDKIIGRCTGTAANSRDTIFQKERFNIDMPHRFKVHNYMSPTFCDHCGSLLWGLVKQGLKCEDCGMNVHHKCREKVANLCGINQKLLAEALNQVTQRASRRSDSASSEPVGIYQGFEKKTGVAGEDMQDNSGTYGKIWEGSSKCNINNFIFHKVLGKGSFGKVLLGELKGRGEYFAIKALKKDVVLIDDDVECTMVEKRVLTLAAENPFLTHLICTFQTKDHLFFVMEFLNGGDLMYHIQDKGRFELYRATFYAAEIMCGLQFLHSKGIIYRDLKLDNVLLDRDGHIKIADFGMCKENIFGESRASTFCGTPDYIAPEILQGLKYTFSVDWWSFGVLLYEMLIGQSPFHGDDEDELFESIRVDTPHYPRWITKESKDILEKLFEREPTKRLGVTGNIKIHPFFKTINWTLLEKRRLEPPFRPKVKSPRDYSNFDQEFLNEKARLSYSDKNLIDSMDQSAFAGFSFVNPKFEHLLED
Procedure: as §1

[11] = molecular target: PKCe (Homo sapiens (Human), UniProt Q02156); assay: Kinase assay PKCe; type: biochemical; details: HCl salt
Chain of PKCe (Q02156 whole entry, species assumed): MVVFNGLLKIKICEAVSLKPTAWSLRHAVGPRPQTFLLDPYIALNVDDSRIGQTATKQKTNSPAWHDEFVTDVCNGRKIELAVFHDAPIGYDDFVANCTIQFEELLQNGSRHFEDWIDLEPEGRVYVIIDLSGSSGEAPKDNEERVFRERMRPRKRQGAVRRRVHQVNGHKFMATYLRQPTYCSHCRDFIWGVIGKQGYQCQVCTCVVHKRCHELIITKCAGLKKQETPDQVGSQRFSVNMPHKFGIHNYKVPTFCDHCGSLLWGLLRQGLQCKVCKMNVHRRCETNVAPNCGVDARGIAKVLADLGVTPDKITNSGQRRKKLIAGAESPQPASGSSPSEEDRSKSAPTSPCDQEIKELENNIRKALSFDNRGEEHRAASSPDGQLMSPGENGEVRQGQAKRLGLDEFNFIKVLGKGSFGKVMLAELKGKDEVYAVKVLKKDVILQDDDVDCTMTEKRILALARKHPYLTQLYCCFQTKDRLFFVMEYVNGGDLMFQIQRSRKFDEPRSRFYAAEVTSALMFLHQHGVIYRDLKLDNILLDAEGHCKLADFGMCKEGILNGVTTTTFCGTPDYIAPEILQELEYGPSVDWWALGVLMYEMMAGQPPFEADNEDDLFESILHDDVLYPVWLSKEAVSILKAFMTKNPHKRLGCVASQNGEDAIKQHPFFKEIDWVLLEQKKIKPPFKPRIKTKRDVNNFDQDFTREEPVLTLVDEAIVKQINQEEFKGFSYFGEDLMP
Procedure: as §1

[12] = molecular target: AKT1 (Homo sapiens (Human), UniProt P31749); assay: Kinase assay AKT1; type: biochemical; details: HCl salt
Procedure: as §1

[13] = test system: PTM; assay: PTM assay; type: cell-based; details: HCl salt
Procedure: as §1

[14] = test system: HTM; assay: HTM assay; type: cell-based; details: HCl salt
Procedure: as §1

[15] = in vitro; type: cell-based
[16] = test system: NFkB; assay: NFkB assay; type: cell-based; details: HCl salt
Procedure: as §1

[17] = test system: Myeloperoxidase (MPO) activity; assay: Myeloperoxidase (MPO) activity after intravitreal LPS in mice; type: in vivo, C57Bl6 male mice; details: dosed at 0 and 6 hours
Procedure: Adult C57Bl6 male mice were injected with 2 ng of lipopolysaccharide (LPS) intravitreally. The mice were then dosed with vehicle, compounds or control treatments (0.07% w/w, 0.02% w/w or 0.007% w/w) at times 0 and 6 hours post-injection. Aqueous humor (AH) and vitreous humor (VH) was collected 24 hours after injection of LPS and assayed for MPO activity by ELISA. Data is a compilation of two separate experiments. Statistical analysis was carried out on GraphPad prism using a multiple comparisons 1-way ANOVA with uncorrected Dunn's test. Results are shown in FIG. 5 (aqueous humor) and FIG. 6 (vitreous humor). In FIG. 5 and FIG. 6, Dex refers to dexamethasone, Compound A refers to (S)-3-amino-2-(4-(hydroxymethyl)phenyl)-N-(isoquinolin-6-yl)propanamide, * refers to p<0.05, and ** refers to p<0.005. MPO levels correspond to levels of neutrophil infiltration. In the context of non-infectious inflammatory events, neutrophils cause robust levels of damage to tissues.

Chain of ROCK2 (O75116 whole entry, species assumed): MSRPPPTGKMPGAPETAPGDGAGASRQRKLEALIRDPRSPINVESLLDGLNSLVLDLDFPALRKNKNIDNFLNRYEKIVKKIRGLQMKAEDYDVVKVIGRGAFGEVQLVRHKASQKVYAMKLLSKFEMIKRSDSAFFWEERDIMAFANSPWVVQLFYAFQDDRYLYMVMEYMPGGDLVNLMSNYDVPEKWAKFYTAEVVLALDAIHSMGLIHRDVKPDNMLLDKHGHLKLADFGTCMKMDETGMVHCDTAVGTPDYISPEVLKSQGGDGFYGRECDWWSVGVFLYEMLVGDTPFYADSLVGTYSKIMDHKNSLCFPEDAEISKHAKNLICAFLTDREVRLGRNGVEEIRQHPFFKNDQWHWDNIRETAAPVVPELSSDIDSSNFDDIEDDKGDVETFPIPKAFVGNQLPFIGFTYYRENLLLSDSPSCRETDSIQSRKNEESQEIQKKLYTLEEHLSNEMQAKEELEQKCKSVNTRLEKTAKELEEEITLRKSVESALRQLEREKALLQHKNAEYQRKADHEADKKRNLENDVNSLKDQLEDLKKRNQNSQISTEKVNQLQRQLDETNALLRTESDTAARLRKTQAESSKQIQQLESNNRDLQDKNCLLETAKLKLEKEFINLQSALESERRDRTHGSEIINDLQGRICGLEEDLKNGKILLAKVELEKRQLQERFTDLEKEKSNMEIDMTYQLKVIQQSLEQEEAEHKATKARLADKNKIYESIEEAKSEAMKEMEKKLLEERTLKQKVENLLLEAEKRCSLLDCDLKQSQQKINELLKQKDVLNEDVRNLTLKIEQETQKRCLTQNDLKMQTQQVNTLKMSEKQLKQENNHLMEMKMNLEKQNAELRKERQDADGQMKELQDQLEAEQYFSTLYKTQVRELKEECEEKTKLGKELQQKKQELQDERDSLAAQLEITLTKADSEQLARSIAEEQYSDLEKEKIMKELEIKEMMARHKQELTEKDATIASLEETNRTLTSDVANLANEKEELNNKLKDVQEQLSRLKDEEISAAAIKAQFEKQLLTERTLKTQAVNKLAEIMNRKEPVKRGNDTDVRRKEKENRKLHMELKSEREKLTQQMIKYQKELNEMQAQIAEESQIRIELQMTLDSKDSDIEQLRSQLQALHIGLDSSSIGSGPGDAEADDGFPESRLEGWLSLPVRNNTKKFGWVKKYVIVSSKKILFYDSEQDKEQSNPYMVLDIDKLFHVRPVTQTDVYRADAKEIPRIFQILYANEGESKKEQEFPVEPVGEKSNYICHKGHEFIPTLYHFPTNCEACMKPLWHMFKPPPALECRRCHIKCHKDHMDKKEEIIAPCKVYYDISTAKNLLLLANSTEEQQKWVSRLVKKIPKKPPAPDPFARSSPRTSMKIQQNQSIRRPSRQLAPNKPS

Which IC50 [1] does the source give for `CC1(C)O[C@@H]2C[C@H]3[C@@H]4CCC5=CC(=O)C=C[C@]5(C)[C@@]4(F)[C@@H](O)C[C@]3(C)[C@]2(C(=O)COC(=O)CCC(=O)OCc2ccc([C@@H](CN)C(=O)Nc3ccc4cnccc4c3)cc2)O1` [Example 33] here?
The IC50 was 14 nM.

What about the IC50 [2] of the same compound?
Its IC50 is 21 nM.

What about the IC50 [3] of the same compound?
Its IC50 is 81 nM.

What about the IC50 [4] of the same compound?
The IC50 was 50000 nM.

What about the IC50 [5] of the same compound?
The IC50 was 42400 nM.

And the IC50 [6]?
The IC50 was 30100 nM.

And the IC50 [7]?
Its IC50 is 50000 nM.

And the IC50 [8]?
The IC50 was 40100 nM.

What about the IC50 [9] of the same compound?
Its IC50 is 145 nM.

What about the IC50 [10] of the same compound?
The IC50 was 142 nM.

What about the IC50 [11] of the same compound?
The IC50 was 1580 nM.

What about the IC50 [12] of the same compound?
Its IC50 is 1240 nM.

What about the IC50 [13] of the same compound?
Its IC50 is 75 nM.

What about the IC50 [14] of the same compound?
The IC50 was 4 nM.

And the IC50 [15]?
The IC50 was 55200 nM.

And the IC50 [16]?
The IC50 was 103 nM.

What about the “effect on myeloperoxidase activity in aqueous humor” value ([17]; aqueous humor 24 hours, FIG. 5) of the same compound?
Its value is “inhibiting effect”.

What about the “effect on myeloperoxidase activity in vitreous humor” value ([17]; vitreous humor 24 hours, FIG. 6) of the same compound?
Its value is “inhibiting effect”.

Which IC50 [1] does the source give for `C[C@@H]1C[C@H]2[C@@H]3CCC4=CC(=O)C=C[C@]4(C)[C@@]3(F)[C@@H](O)C[C@]2(C)[C@@]1(O)C(=O)COC(=O)CCC(=O)OCc1ccc([C@@H](CN)C(=O)Nc2ccc3cnccc3c2)cc1` [Example 25] here?
The IC50 was 17 nM.

And the IC50 [2]?
The IC50 was 25 nM.

What about the IC50 [3] of the same compound?
Its IC50 is 138 nM.

And the IC50 [4]?
Its IC50 is 50000 nM.

And the IC50 [5]?
The IC50 was 40900 nM.

And the IC50 [6]?
Its IC50 is 21400 nM.

And the IC50 [7]?
Its IC50 is 50000 nM.

And the IC50 [8]?
Its IC50 is 38500 nM.

And the IC50 [9]?
The IC50 was 173 nM.

What about the IC50 [10] of the same compound?
The IC50 was 225 nM.

And the IC50 [11]?
Its IC50 is 1580 nM.

What about the IC50 [12] of the same compound?
The IC50 was 955 nM.

And the IC50 [13]?
The IC50 was 295 nM.

And the IC50 [14]?
Its IC50 is 4.5 nM.

What about the IC50 [15] of the same compound?
Its IC50 is 100000 nM.

And the IC50 [16]?
Its IC50 is 39 nM.
